Test results published in patent publication EP0595557A1, “New substituted azetidinones as anti-inflammatory and antidegenerative agents” (MERCK & CO. INC., priority 1992, dated 1994).

Target: T1, Human Polymorphonuclear Leukocyte Elastase (Homo sapiens, UniProt P08246)
T1 construct: Crude extract of human polymorphonuclear leukocytes (PMN) containing elastase activity; from tissue; host or cells: human polymorphonuclear leukocytes (crude extract)
T1 sequence (P08246 30-267): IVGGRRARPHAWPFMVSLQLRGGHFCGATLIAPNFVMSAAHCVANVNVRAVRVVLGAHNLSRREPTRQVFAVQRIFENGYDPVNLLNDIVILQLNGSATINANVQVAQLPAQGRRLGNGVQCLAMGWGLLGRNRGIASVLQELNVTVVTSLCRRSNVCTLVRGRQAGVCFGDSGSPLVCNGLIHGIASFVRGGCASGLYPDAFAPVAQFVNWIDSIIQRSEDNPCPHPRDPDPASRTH
Test: Enzyme assay for inhibition of human polymorphonuclear leukocyte elastase via hydrolysis of Boc-AAPAN or Boc-AAPVN
Format: biochemical
Conditions: expressed to the nearest thousand; for kinact/KI: pH 7.5, second order rate constant for inactivation of the enzyme, read-out: Kobs/[I]
Method: Enzyme Assays for the Inhibition of Human Polymorphonuclear Leukocyte Elastase Via Hydrolysis of N-t-Boc-alanyl-alanyl-prolylalanine-p-nitroanilide (Boc-AAPAN) or N-t-Boc-alanyl-prolylvaline-p-nitro-anilide (Boc-AAPVN) Reagent:
0.05M TES (N-tris[hydroxymethyl]methyl-2-mino-ethanesulfonic acid) Buffer, pH 7.5.
0.2 mM Boc-AAPAN or Boc-AAPVN.
To prepare substrate, the solid was first dissolved in 10.0 ml DMSO. Buffer at pH 7.5 was then added to a final volume of 100 ml.
Crude extract of human polymorphonuclear leukocytes (PMN) containing elastase activity.
Inhibitors (azetidinones) to be tested dissolved in DMSO just before use.
To 1.0 ml of 0.2 mM Boc-AAPAN in a cuvette, 0.01-0.1 ml of DMSO with or without inhibitor was added. After mixing, a measurement was taken at 410 mµ to detect any spontaneous hydrolysis due to presence of test compound. 0.05 Milliliters of PMN extract was then added and the ΔOD/min at 410 mµ was measured and recorded. Beckman model 35 spectrophotometer was used.
Results were expressed to the nearest thousand ^kobs/I which is the second order rate constant in per mole per second for inactivation of the enzyme.
The elastase activity in the crude PMN extract may vary from one preparation to another. A control of each new batch is run, and the volume added in the assay procedure is adjusted according to activity.

Compound	kinact/KI	Kobs/[I] (second order rate constant for inactivation of the enzyme, pH 7.5)
CCC[C@@H](NC(=O)N1C(=O)C(CC)(CC)[C@@H]1Oc1ccc(C(=O)N(C)CCN(CCOC)CCOC)cc1)c1ccc(C)cc1 [Compound 80]	2.08e+06 M⁻¹ s⁻¹	–
CCC[C@@H](NC(=O)N1C(=O)C(CC)(CC)[C@@H]1Oc1ccc(C(=O)N(C)CCCN(C)CC)cc1)c1ccc(C)cc1 [Compound 214]	1.1e+06 M⁻¹ s⁻¹	–
CCC[C@@H](NC(=O)N1C(=O)C(CC)(CC)[C@@H]1Oc1ccc(C(=O)N(C)CCCC(=O)O)cc1)c1ccc(C)cc1 [Compound 164]	1.06e+06 M⁻¹ s⁻¹	–
CCC[C@@H](NC(=O)N1C(=O)C(CC)(CC)[C@@H]1Oc1ccc(C(=O)N(C)CCN(C)C)cc1)c1ccc(C)cc1 [Compound 75, [S-(R*,S*)]-2-[4-[[[2-(dimethylamino)ethyl]methylamino]carbonyl]phenoxy]-3,3-diethyl-N-[1-(4-methylphenyl]butyl]-4-oxo-1-azetidinecarboxamide]	1.92e+06 M⁻¹ s⁻¹	–
CCC[C@@H](NC(=O)N1C(=O)C(CC)(CC)[C@@H]1Oc1ccc(C(=O)N2CCN(C3CC3)CC2)cc1)c1ccc2c(c1)OCO2 [Compound 265, [S-(R*,S*)]-2-[4-[[(4-Cyclopropyl)piperazin-1-yl]carbonyl]phenoxy]-((3,3-diethyl-N-[1-(3,4-methylenedioxyphenyl)butyl]-4-oxo-1-azetidinecarboxamide]	4.5e+06 M⁻¹ s⁻¹	–
CCC[C@@H](NC(=O)N1C(=O)C(CC)(CC)[C@@H]1Oc1ccc(C(=O)N(C)CCN(C)C)cc1)c1ccc(C(=O)O)cc1 [Compound 287]	113000 M⁻¹ s⁻¹	–
CCC[C@@H](NC(=O)N1C(=O)C(CC)(CC)[C@@H]1Oc1ccc(C(=O)N(CCN(C)Cc2ccccc2)Cc2cccnc2)cc1)c1ccc(C)cc1 [Compound 191]	2.54e+06 M⁻¹ s⁻¹	–
CCC[C@@H](NC(=O)N1C(=O)C(CC)(CC)[C@@H]1Oc1ccc(CC(=O)N(C)CCN(C)C)cc1)c1ccc(C)cc1 [Compound 44]	1.24e+06 M⁻¹ s⁻¹	–
CCC[C@@H](NC(=O)N1C(=O)C(CC)(CC)[C@@H]1Oc1ccc(C(=O)NC2CC(C)(C)NC(C)(C)C2)cc1)c1ccc(C)cc1 [Compound 174]	869000 M⁻¹ s⁻¹	–
CCCC(NC(=O)N1C(=O)C(CC)(CC)C1Oc1ccc(C(=O)OCCN(c2ccccc2)c2ccccc2)cc1)c1ccc(C)cc1 (stereo not drawn) [Compound 28, 2-(diphenylamino)ethyl[S-(R*,S*)]-4-[[3,3-diethyl-1-[[[1-(4-methylphenyl)butyl]amino]carbonyl]-4-oxo-2-azetidinyl]oxy]benzoate]	–	188,000 per mole per second
CCC[C@@H](NC(=O)N1C(=O)C(CC)(CC)[C@@H]1Oc1ccc(CC(=O)N2CCOCC2)cc1)c1ccc(C(=O)OCCN(C)C)cc1 [Compound 282]	421000 M⁻¹ s⁻¹	–
CCC[C@@H](NC(=O)N1C(=O)C(CC)(CC)[C@@H]1Oc1ccc(CC(=O)N(C)Cc2ccccc2)cc1)c1ccc(C)cc1 [Compound 68]	1.9e+06 M⁻¹ s⁻¹	–
CCC[C@@H](NC(=O)N1C(=O)C(CC)(CC)[C@@H]1Oc1ccc(CC(=O)N2CCOCC2)cc1)c1ccc(C(=O)O)cc1 [Compound 281]	62000 M⁻¹ s⁻¹	–
CCC[C@@H](NC(=O)N1C(=O)C(CC)(CC)[C@@H]1Oc1ccc(CC(=O)N2CCOCC2)cc1)c1ccc(C)cc1 [Compound 42]	1.09e+06 M⁻¹ s⁻¹	–
CCC[C@@H](NC(=O)N1C(=O)C(CC)(CC)[C@@H]1Oc1ccc(C(=O)N(C)CCN(C(C)C)C(C)C)cc1)c1ccc(C)cc1 [Compound 86]	2.45e+06 M⁻¹ s⁻¹	–
CCC[C@@H](NC(=O)N1C(=O)C(CC)(CC)[C@@H]1Oc1ccc(CC(=O)N(C)c2ccc(C(=O)O)cc2)cc1)c1ccc(C)cc1 [Compound 71]	1.51e+06 M⁻¹ s⁻¹	–
CCC[C@@H](NC(=O)N1C(=O)C(CC)(CC)[C@@H]1Oc1ccc(C(=O)N(C)CCN(C)Cc2ccc(OC)cc2)cc1)c1ccc(C)cc1 [Compound 192]	1.78e+06 M⁻¹ s⁻¹	–
CCC[C@@H](NC(=O)N1C(=O)C(CC)(CC)[C@@H]1Oc1ccc(C(=O)N(C)CCN(CC)CC)cc1)c1ccc(Cl)cc1 [Compound 300]	1.28e+06 M⁻¹ s⁻¹	–

Compound	kinact/KI	Kobs/[I] (second order rate constant for inactivation of the enzyme, pH 7.5)
CCC[C@@H](NC(=O)N1C(=O)C(CC)(CC)[C@@H]1Oc1cc(C)c(C(=O)N(CC)CCN(C)C)c(C)c1)c1ccc(C)cc1 [Compound 309]	398000 M⁻¹ s⁻¹	–
CCC[C@@H](NC(=O)N1C(=O)C(CC)(CC)[C@@H]1Oc1ccc(C(=O)N2CCOCC2)cc1)c1ccc2c(c1)OCO2 [Compound 265d]	3.7e+06 M⁻¹ s⁻¹	–
CCC[C@@H](NC(=O)N1C(=O)C(CC)(CC)[C@@H]1Oc1ccc(C(=O)N2CCN(c3ccc(F)cc3)CC2)cc1)c1ccc(C)cc1 [Compound 243]	7.49e+06 M⁻¹ s⁻¹	–
CCC[C@@H](NC(=O)N1C(=O)C(CC)(CC)[C@@H]1Oc1ccc(C(=O)OCC(=O)N(C)C)cc1)c1ccc(C)cc1 (relative stereo) [Compound 6, 2-(dimethylamino)-2-oxoethyl, (S-(R*,S*))-4-((3,3-Diethyl-1-(((1-(4-methyl-phenyl)butyl)amino)carbonyl)-4-oxo-2-azetidinyl)oxy)-benzoate]	3e+06 M⁻¹ s⁻¹	–
CCC[C@@H](NC(=O)N1C(=O)C(CC)(CC)[C@@H]1Oc1ccc(C(=O)N2CCN(C(C)C)CC2)cc1)c1ccc(C)cc1 [Compound 248]	2.39e+06 M⁻¹ s⁻¹	–
CCC[C@@H](NC(=O)N1C(=O)C(CC)(CC)[C@@H]1Oc1ccc(CC(=O)N(C)CCN(CC)CC)cc1)c1ccc(C)cc1 [Compound 55]	1.32e+06 M⁻¹ s⁻¹	–
CCC[C@@H](NC(=O)N1C(=O)C(CC)(CC)[C@@H]1Oc1ccc(CC(=O)OCCN(CC)CC)cc1)c1ccc(C)cc1 [Compound 34]	1.34e+06 M⁻¹ s⁻¹	–
CCC[C@@H](NC(=O)N1C(=O)C(CC)(CC)[C@@H]1Oc1ccc(C(=O)N2CCN(c3ccccc3)CC2)cc1)c1ccc(C)cc1 [Compound 245]	5.28e+06 M⁻¹ s⁻¹	–
CCC[C@@H](NC(=O)N1C(=O)C(CC)(CC)[C@@H]1Oc1ccc(CC(=O)N(C)CCN(C)C)cc1)c1cccc(C(=O)N2CCOCC2)c1 [Compound 268]	142000 M⁻¹ s⁻¹	–
CCC[C@@H](NC(=O)N1C(=O)C(CC)(CC)[C@@H]1Oc1ccc(CC(=O)N(C)c2ccc(C(=O)NS(=O)(=O)c3ccccc3)cc2)cc1)c1ccc(C)cc1 [Compound 72]	3.28e+06 M⁻¹ s⁻¹	–
CCC[C@@H](NC(=O)N1C(=O)C(CC)(CC)[C@@H]1Oc1ccc(CC(=O)OCCN2CCOCC2)cc1)c1ccc(C)cc1 [Compound 35]	1.72e+06 M⁻¹ s⁻¹	–
CCC[C@@H](NC(=O)N1C(=O)C(CC)(CC)[C@@H]1Oc1ccc(C(=O)N2CCCNCC2)cc1)c1ccc(C)cc1 [Compound 152]	1.95e+06 M⁻¹ s⁻¹	–
CCC[C@@H](NC(=O)N1C(=O)C(CC)(CC)[C@@H]1Oc1ccc(CC(=O)N(C)CCN(C)Cc2ccccc2)cc1)c1ccc(C)cc1 [Compound 69]	2.79e+06 M⁻¹ s⁻¹	–
CCC[C@@H](NC(=O)N1C(=O)C(CC)(CC)[C@@H]1Oc1cc(C)c(C(=O)OCCN(C(C)C)C(C)C)c(C)c1)c1ccc(C)cc1 [Compound 306, 2-[bis(1-methylethyl)amino]-ethyl [S-(R*,S*)]-4-[[3,3-diethyl-1-[[[1-(4-methylphenyl)butyl]amino]carbonyl]-4-oxo-2-azetidinyl]oxy]-2,6-dimethyl-benzoate]	612000 M⁻¹ s⁻¹	–
CCC[C@@H](NC(=O)N1C(=O)C(CC)(CC)[C@@H]1Oc1ccc(C(=O)N(C)CCN(C)C)cc1)c1ccc(Cl)cc1 [Compound 299]	1.48e+06 M⁻¹ s⁻¹	–
CCC[C@@H](NC(=O)N1C(=O)C(CC)(CC)[C@@H]1Oc1ccc(C(=O)N(C)CCN(C)Cc2ccccn2)cc1)c1ccc(C)cc1 [Compound 150]	2.16e+06 M⁻¹ s⁻¹	–
CCC[C@@H](NC(=O)N1C(=O)C(CC)(CC)[C@@H]1Oc1ccc(C(=O)N(CC)CC)cc1)c1ccc(C)cc1 [Compound 128]	1.45e+06 M⁻¹ s⁻¹	–
CCC[C@@H](NC(=O)N1C(=O)C(CC)(CC)[C@@H]1Oc1ccc(C(=O)N(C)CCN(C)Cc2ccccc2)cc1)c1ccc(C)cc1 [Compound 125]	2.05e+06 M⁻¹ s⁻¹	–
